In patent US12071434B2, “Heterocyclic compound” (Takeda Pharmaceutical Company Limited, priority 2018, dated 2024):

Molecular target: T1, human orexin type 2 receptor (Homo sapiens, UniProt O43614)
T1 construct: expressed in transfected cells
T1 sequence (O43614 1-444): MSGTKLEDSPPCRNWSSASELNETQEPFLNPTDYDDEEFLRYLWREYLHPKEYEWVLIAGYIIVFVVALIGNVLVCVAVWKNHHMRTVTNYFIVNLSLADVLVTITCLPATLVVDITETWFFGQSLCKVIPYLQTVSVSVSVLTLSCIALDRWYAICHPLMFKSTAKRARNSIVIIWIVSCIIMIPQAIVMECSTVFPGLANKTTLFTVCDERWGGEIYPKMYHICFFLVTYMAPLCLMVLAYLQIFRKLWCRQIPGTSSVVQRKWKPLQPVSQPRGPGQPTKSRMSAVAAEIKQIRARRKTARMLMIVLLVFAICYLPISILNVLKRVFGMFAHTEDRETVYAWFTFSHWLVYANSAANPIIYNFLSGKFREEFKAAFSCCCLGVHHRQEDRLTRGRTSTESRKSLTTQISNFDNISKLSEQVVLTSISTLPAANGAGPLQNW
Assay: Measurement of orexin type 2 receptor agonist activity (calcium fluorescence, Fluo-4 AM, FDSS) in CHO cells forcibly expressing human OX2 receptor
Assay type: cell-based
Details: test compound 3 μM, DMSO = 0%, orexin A (human) 10 nM = 100%
Text: To obtain a cell clone stably expressing human orexin type 2 receptor, human orexin type 2 receptor cDNA was inserted into pcDNA3.1(+) plasmid vector (Invitrogen), and a plasmid DNA for expression of human orexin type 2 receptor (pcDNA3.1(+)/hOX2R) was cloned. The plasmid DNA was introduced into CHO-dhfr cell by an electroporation method, and human orexin type 2 receptor expressing clone cells were obtained by limiting dilution method by using G418 drug resistance as a selection marker.
CHO cells forcibly expressing human OX2 receptor were seeded in each well of 384 well black transparent bottom plate (BD Falcon) at 7,500 cells/well, and cultured for one day in a 5% CO2 incubator at 37° C. After removal of the medium in the cell plate, assay buffer A containing a calcium indicator (HBSS (Thermo Fisher Scientific), 20 mM HEPES (Thermo Fisher Scientific), 0.1% BSA (Sigma-Aldrich), 2.5 μg/mL Fluo-4 AM (DOJINDO Chemical), 0.08% Pluronic F127 (DOJINDO Chemical), 1.25 mM probenecid (DOJINDO Chemical)) was added at 30 μL/well. The plate was stood for 30 min in a 5% CO2 incubator at 37° C., and further stood at room temperature for 30 min. A test compound prepared by diluting with assay buffer B (HBSS, 20 mM HEPES, 0.1% BSA) was added at 10 μL/well, and the fluorescence value was measured by FDSSpCELL (Hamamatsu Photonics K.K.) every one sec for 1 min, and thereafter every two sec for 1 min 40 sec. The activity (%) of the test compound was calculated assuming that variation in the fluorescence value when DMSO was added instead of the test compound was 0%, and variation in the fluorescence value when orexin A (human) (PEPTIDE INSTITUTE, INC.) was added at the final concentration of 10 nM was 100%.

| Structure (SMILES) | 0X2R agonist activity (3 μM, %) [%] |
| --- | --- |
| Cn1cc2n(c1=O)[C@@H](Cc1cccc(-c3cc(F)cc(F)c3)c1)[C@@H](NS(C)(=O)=O)CC2 (racemic) [Example 201, rac-N-{(5S,6S)-5-[(3′,5′-difluoro[1,1′-biphenyl]-3-yl)methyl]-2-methyl-3-oxo-2,3,5,6,7,8-hexahydroimidazo[1,5-a]pyridin-6-yl}methanesulfonamide] | 91 |
| CCc1ccc2n(c1=O)C(Cc1cccc(-c3cc(F)cc(F)c3)c1)C(NS(C)(=O)=O)CC2 (racemic) [Example 101, rac-N-{(3S,4S)-4-[(3′,5′-difluoro[1,1′-biphenyl]-3-yl)methyl]-7-ethyl-6-oxo-1,3,4,6-tetrahydro-2H-quinozilin-3-yl}methanesulfonamide] | 98 |
| CC(C)n1cnc2c(c1=O)[C@@H](Cc1csc(-c3ccccc3F)n1)[C@@H](NS(=O)(=O)C1(F)CC1)CC2 (relative stereo) [Example 156, rel-1-fluoro-N-[(5R,6S)-5-{[2-(2-fluorophenyl)-1,3-thiazol-4-yl]methyl}-4-oxo-3-(propan-2-yl)-3,4,5,6,7,8-hexahydroquinazolin-6-yl]cyclopropane-1-sulfonamide] | 93 |
| Cc1cc(=O)n2c(c1C)CC[C@H](NS(C)(=O)=O)[C@@H]2Cc1cccc(-c2ccccc2)c1 (racemic) [Example 20, rac-N-{(3S,4S)-4-[([1,1′-biphenyl]-3-yl)methyl]-8,9-dimethyl-6-oxo-1,3,4,6-tetrahydro-2H-quinolizin-3-yl}methanesulfonamide] | 113 |
| CCn1ccc2c(c1=O)[C@@H](Cc1cccc(-c3cccc(F)c3)c1)[C@@H](NS(C)(=O)=O)CC2 (racemic) [Example 79, rac-N-{(7S,8R)-2-ethyl-8-[(3′-fluoro[1,1′-biphenyl]-3-yl)methyl]-1-oxo-1,2,5,6,7,8-hexahydroisoquinolin-7-yl}methanesulfonamide] | 102 |
| Cc1ccc2n(c1=O)[C@@H](Cc1csc(-c3cccc(F)c3)n1)[C@@H](NS(C)(=O)=O)CC2 (racemic) [Example 64, rac-N-[(3S,4S)-4-{[2-(3-fluorophenyl)-1,3-thiazol-4-yl]methyl}-7-methyl-6-oxo-1,3,4,6-tetrahydro-2H-quinolizin-3-yl]methanesulfonamide] | 100 |
| CCn1ccc2c(c1=O)[C@@H](Cc1cccc(-c3ccccc3)c1F)[C@@H](NS(C)(=O)=O)CC2=O (racemic) [Example 163, rac-N-{(7S,8R)-2-ethyl-8-[(2-fluoro[1,1′-biphenyl]-3-yl)methyl]-1,5-dioxo-1,2,5,6,7,8-hexahydroisoquinolin-7-yl}methanesulfonamide] | 94 |
| CCS(=O)(=O)N[C@H]1CCc2ncn(C(C)C)c(=O)c2[C@H]1Cc1cccc(-c2cc(C)cc(C)n2)c1 (racemic) [Example 102, rac-N-[(5R,6S)-5-{[3-(4,6-dimethylpyridin-2-yl)phenyl]methyl}-4-oxo-3-(propan-2-yl)-3,4,5,6,7,8-hexahydroquinazolin-6-yl]ethanesulfonamide] | 100 |
| CS(=O)(=O)N[C@H]1CCc2ccc(Cl)c(=O)n2[C@H]1Cc1cccc(-c2ccccc2)c1 (racemic) [Example 15, rac-N-{(3S,4S)-4-[([1,1′-biphenyl]-3-yl)methyl]-7-chloro-6-oxo-1,3,4,6-tetrahydro-2H-quinolizin-3-yl}methanesulfonamide] | 106 |
| CC(C)n1cnc2c(c1=O)[C@@H](Cc1cccc(-c3ccccc3)c1)[C@@H](NS(C)(=O)=O)CC2 (relative stereo) [Example 99, rel-N-[(5R,6S)-5-[([1,1′-biphenyl]-3-yl)methyl]-4-oxo-3-(propan-2-yl)-3,4,5,6,7,8-hexahydroquinazolin-6-yl]methanesulfonamide] | 95 |
| CC(C)n1cnc2c(c1=O)[C@@H](Cc1cccc(-c3ccccc3F)c1F)[C@@H](NS(=O)(=O)C1(F)CC1)CC2 [Example 183, N-[(5R,6S)-5-[(2,2′-difluoro[1,1′-biphenyl]-3-yl)methyl]-4-oxo-3-(propan-2-yl)-3,4,5,6,7,8-hexahydroquinazolin-6-yl]-1-fluorocyclopropane-1-sulfonamide] | 95 |
| Cc1cc2n(c(=O)c1C)[C@@H](Cc1cccc(-c3ccccc3)c1)[C@@H](NS(C)(=O)=O)CC2 (racemic) [Example 19, rac-N-{(3S,4S)-4-[([1,1′-biphenyl]-3-yl)methyl]-7,8-dimethyl-6-oxo-1,3,4,6-tetrahydro-2H-quinolizin-3-yl}methanesulfonamide] | 122 |
| Cc1ccc2n(c1=O)[C@@H](Cc1csc(-c3ccccc3)n1)[C@@H](NS(C)(=O)=O)CC2 (racemic) [Example 58, rac-N-{(3S,4S)-7-methyl-6-oxo-4-[(2-phenyl-1,3-thiazol-4-yl)methyl]-1,3,4,6-tetrahydro-2H-quinolizin-3-yl}methanesulfonamide] | 92 |
| CC(C)n1cnc2c(c1=O)[C@@H](Cc1cccc(-c3cccc(F)c3F)c1F)[C@@H](NS(C)(=O)=O)CC2 (relative stereo) [Example 151, rel-N-{(5R,6S)-4-oxo-3-(propan-2-yl)-5-[(2,2′,3′-trifluoro[1,1′-biphenyl]-3-yl)methyl]-3,4,5,6,7,8-hexahydroquinazolin-6-yl}methanesulfonamide] | 107 |
| CCn1ccc2c(c1=O)[C@@H](Cc1cccc(-c3ccccc3F)c1)[C@@H](NS(C)(=O)=O)CC2 (racemic) [Example 119, rac-N-{(7S,8R)-2-ethyl-8-[(2′-fluoro[1,1′-biphenyl]-3-yl)methyl]-1-oxo-1,2,5,6,7,8-hexahydroisoquinolin-7-yl}methanesulfonamide] | 105 |
| Cc1ccc2n(c1=O)[C@@H](Cc1cccc(-c3cccc(F)c3)n1)[C@@H](NS(C)(=O)=O)CC2 (racemic) [Example 59, rac-N-[(3S,4S)-4-{[6-(3-fluorophenyl)pyridin-2-yl]methyl}-7-methyl-6-oxo-1,3,4,6-tetrahydro-2H-quinolizin-3-yl]methanesulfonamide] | 86 |
| CS(=O)(=O)N[C@H]1CCc2ccc(F)c(=O)n2[C@H]1Cc1cccc(-c2ccccc2)c1 (racemic) [Example 16, rac-N-{(3S,4S)-4-[([1,1′-biphenyl]-3-yl)methyl]-7-fluoro-6-oxo-1,3,4,6-tetrahydro-2H-quinolizin-3-yl}methanesulfonamide] | 95 |
| CCn1c(C)nc2c(c1=O)C(Cc1cccc(-c3ccccc3)c1)C(NS(C)(=O)=O)CC2 (racemic) [Example 71, rac-N-{(5R,6S)-5-[([1,1′-biphenyl]-3-methyl]-3-ethyl-2-methyl-4-oxo-3,4,5,6,7,8-hexahydroquinazolin-6-yl}methanesulfonamide] | 90 |
| Cc1cccc(-c2cccc(C[C@@H]3c4c(ncn(C(C)C)c4=O)CC[C@@H]3NS(C)(=O)=O)c2)c1F (racemic) [Example 108, rac-N-[(5R,6S)-5-[(2′-fluoro-3′-methyl[1,1′-biphenyl]-3-yl)methyl]-4-oxo-3-(propan-2-yl)-3,4,5,6,7,8-hexahydroquinazolin-6-yl]methanesulfonamide] | 100 |
| CC(C)n1cc2n(c1=O)[C@@H](Cc1cccc(-c3ccccc3)c1)[C@@H](NS(C)(=O)=O)CC2 (racemic) [Example 203, rac-N-[(5S,6S)-5-[([1,1′-biphenyl]-3-yl)methyl]-3-oxo-2-(propan-2-yl)-2,3,5,6,7,8-hexahydroimidazo[1,5-a]pyridin-6-yl]methanesulfonamide] | 86 |
| CCS(=O)(=O)N[C@H]1CCc2ncn(C(C)C)c(=O)c2[C@H]1Cc1cccc(-c2cccc(C)c2F)c1 (racemic) [Example 83, rac-N-[(5R,6S)-5-[(2′-fluoro-3′-methyl[1,1′-biphenyl]-3-yl)methyl]-4-oxo-3-(propan-2-yl)-3,4,5,6,7,8-hexahydroquinazolin-6-yl]ethanesulfonamide] | 100 |
| CCn1ccc2c(c1=O)[C@@H](Cc1cccc(-c3cccc4c3OCC4)c1)[C@@H](NS(C)(=O)=O)CC2 (racemic) [Example 126, rac-N-[(7S,8R)-8-{[3-(2,3-dihydro-1-benzofuran-7-yl)phenyl]methyl}-2-ethyl-1-oxo-1,2,5,6,7,8-hexahydroisoquinolin-7-yl]methanesulfonamide] | 103 |
